Reference: PMC10552397 (Cell Communication and Signaling : CCS, 2023)

Experiments:
Type in all cases: cell-based
[1] = tested on: HeLa wt cells; test: BFA washout assay (Golgi reassembly, TGN46 and B4GALT1 staining); settings: 120 min washout
Method: For BFA washout assays, HeLa wt cells were seeded on glass coverslips in 24-well plates. […] After 24 h, the treatment medium was removed, cells were washed once with DPBS and then treated with 5 µg/mL BFA or 0.1% DMSO as a control for 2 h. Cells were then washed with DPBS four times and incubated with fresh culture medium for 0/15/30/45/60/120 min. After the respective BFA washout time, cells were fixed in ice-cold methanol for 15 min on ice, washed three times with DPBS and blocked in 3% BSA (Roth, Karlsruhe, Germany, #8076) overnight. Samples were incubated with primary antibodies diluted in 3% BSA for 2 h and then washed three times with DPBS, incubated with the appropriate secondary antibodies diluted in 3% BSA for 30 min and washed three times with DPBS. Afterwards, cells were embedded in ProLong Glass Antifade Mountant (Thermo Fisher Scientific, Waltham, MA, USA, #P36980) containing 1 µg/mL DAPI (Roth, Karlsruhe, Germany, #6335.1). Images were recorded with an Axio Observer 7 fluorescence microscope (Carl Zeiss Microscopy, Oberkochen, Germany) using a 40x/1,4 Oil DIC M27 Plan-Apochromat objective (Carl Zeiss Microscopy, Oberkochen, Germany) and an ApoTome 2 (Carl Zeiss Microscopy, Oberkochen, Germany).

[2] = tested on: HeLa wt cells; test: Immunofluorescence of GRASP55 and LC3; settings: 6 h
Method: For immunofluorescence microscopy, HeLa cells were seeded on glass coverslips in 24-well plates. After treatment, cells were fixed in 4% paraformaldehyde for 15 min on ice, quenched with 50 mM NH4Cl for 15 min and permeabilized with 50 µg/mL digitonin (Sigma-Aldrich, St. Louis, MO, USA, #D141) for 5 min. Fixed samples were blocked with 3% BSA (Roth, Karlsruhe, Germany, #8076) for 30 min or overnight and incubated with primary antibodies diluted in 3% BSA for 2 h. Samples were then washed three times with DPBS, incubated with the appropriate secondary antibodies diluted in 3% BSA for 30 min and washed three times with DPBS. Afterwards, cells were embedded in ProLong Glass Antifade Mountant (Thermo Fisher Scientific, Waltham, MA, USA, #P36980) containing 1 µg/mL DAPI (Roth, Karlsruhe, Germany, #6335.1). Images were recorded with an Axio Observer 7 fluorescence microscope (Carl Zeiss Microscopy, Oberkochen, Germany) using a 40x/1,4 Oil DIC M27 Plan-Apochromat objective (Carl Zeiss Microscopy, Oberkochen, Germany) and an ApoTome 2 (Carl Zeiss Microscopy, Oberkochen, Germany).

[3] = tested on: HeLa GRASP55 KO cells; test: Secretome analysis by data-independent mass spectrometry; settings: 100 nM, 24 h, serum-free, not apparent in wt
Method: For the preparation of secretomes, 2*10^5 HeLa wt or HeLa GRASP55 KO cells per well were seeded in a 6-well plate (n = 5 replicates for 4 different groups). […] After incubation, the medium was collected, centrifuged at 1,000 × g and 4 °C for 10 min and filtered through a 0.2 µm Acrodisc syringe filter (VWR, Radnor, PA, USA, #514–4131). After adding protease inhibitor cocktail (Roche, Basel, Switzerland, #5,892,791,001), the samples were snap frozen in liquid nitrogen and stored at -80 °C. Proteins were prepared for mass spectrometric analysis by a modified single-pot, solid-phase-enhance sample preparation (SP3) method. […] Finally, the sample was reconstituted in 0.1% trifluoroacetic acid and half of the sample analyzed by mass spectrometry. […]
Only proteins identified with at least two different peptides and 4 valid intensity values (MaxLFQ) in at least one experimental group were considered for further analysis. […] Annotation dependent significant abundance changes of protein groups were analysed using 1D and 2D annotation enrichment and respective differences visualized with split-violin plots with OriginPro 2020b.

SMILES: CCCCCC1=C/C(=C/c2[nH]c(-c3ccc[nH]3)cc2OC)N=C1C [Prodigiosin, prodigiosin]
- Golgi reassembly during BFA washout ([1]; 10 nM pre-treatment 24 h): fully reformed Golgi complex
- Golgi reassembly during BFA washout ([1]; 100 nM pre-treatment 24 h): severely disturbed Golgi reassembly
- co-localization of LC3 and GRASP55 ([2]; BafA1 10 nM): highly significant, dose-dependent increase
- number of LC3 dots ([2]; BafA1 10 nM): increased dose-dependently
- mean area of GRASP55 dots ([2]; all concentrations, vs DMSO): significantly increased
- abundance of signal peptide (SP) proteins in the secretome [3]: higher abundances
